The test concerns the target T1, Isocitrate lyase (Icl) (Paracoccus denitrificans, UniProt A1B1S0).
T1 construct: gene Pden_1363; Recombinant His6-tagged Icl (Pden_1363)
T1 sequence (A1B1S0 1-535): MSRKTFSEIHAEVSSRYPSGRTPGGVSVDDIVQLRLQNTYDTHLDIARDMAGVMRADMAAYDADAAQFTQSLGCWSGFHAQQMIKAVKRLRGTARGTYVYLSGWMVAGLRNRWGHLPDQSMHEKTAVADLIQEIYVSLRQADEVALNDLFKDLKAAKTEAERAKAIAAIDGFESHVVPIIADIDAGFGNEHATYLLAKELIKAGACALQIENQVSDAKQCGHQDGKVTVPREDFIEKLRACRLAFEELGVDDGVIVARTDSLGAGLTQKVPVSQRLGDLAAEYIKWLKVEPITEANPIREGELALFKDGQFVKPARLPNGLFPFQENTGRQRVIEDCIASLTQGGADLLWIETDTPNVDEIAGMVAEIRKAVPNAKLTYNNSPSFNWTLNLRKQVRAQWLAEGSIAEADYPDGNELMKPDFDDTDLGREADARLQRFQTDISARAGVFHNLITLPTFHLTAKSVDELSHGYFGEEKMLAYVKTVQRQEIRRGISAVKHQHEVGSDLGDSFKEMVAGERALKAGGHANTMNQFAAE
As to the kind of experiment: spectrophotometric phenylhydrazine-glyoxylate assay with purified enzyme, […] min preincubation with 3-NPA at […]°C. Type of test: biochemical.

What is called IC50 is the concentration that gives 50% inhibition. Higher therefore signals weaker potency.

With `O=C(O)CC[N+](=O)[O-]` [3-NPA, 3-nitropropionate], the IC50 worked out at 34 µM.

(Values after PMC6747724, “Dynamic Metabolic Rewiring Enables Efficient Acetyl Coenzyme A Assimilation in Paracoccus denitrificans” (mBio, 2019).)
